Assay results as given in US20240101527A1, “QUINOLONE CARBOXYLIC DERIVATIVES” (TAIGEN BIOTECHNOLOGY CO., LTD., priority 2019, published 2024).
In brackets after ≈: the same amount, converted by molar mass.

How the values were obtained:
Assay in all cases: MIC determination, microdilution method (CLSI)
Format in all cases: cell-based
[1] = test system: Staphylococcus aureus ATCC 29213; details: for MIC: Staphylococcus aureus, ATCC29213, Gram(+), 24 h at 37° C., read-out: MIC Sa29213
Method: (§1) The MICs of compounds against all bacterial strains were determined using the microdilution method according to the Clinical and Laboratory Standards Institute guidelines. Bacteria from two or three colonies were picked from freshly streaked culture plates and incubated in culture broth for 8 h. The bacterial culture was then diluted with double-concentrated culture broth to a final concentration of 5×10^5 colony-forming unit (CFU)/mL. Testing compounds were prepared by diluting the stock solution with dimethyl sulfoxide (DMSO). The diluted bacterial suspension was added to an equal volume of a drug solution in a single microwell and incubated for 24 h at 37° C. The minimum concentration in the microwells with no visible bacterial growth was defined as the MIC. All MIC determinations were repeated twice on different days. The MIC of Compounds 1 to 15 against gram(+) and gram(−) bacteria are shown as follows: […]

[2] = test system: Pseudomonas aeruginosa K2376; details: for MIC: Pseudomonas aeruginosa, K2376, Gram(−), 24 h at 37° C., read-out: MIC PaK2376
Method: as §1

[3] = test system: Pseudomonas aeruginosa ATCC 27853; details: for MIC: Pseudomonas aeruginosa, ATCC27853, Gram(−), 24 h at 37° C., read-out: MIC Pa27853
Method: as §1

[4] = test system: Streptococcus pneumoniae ATCC 49619; details: for MIC: Streptococcus pneumoniae, ATCC49619, Gram(+), 24 h at 37° C., read-out: MIC Sp49619
Method: as §1

[5] = MIC of comparative compound / MIC of Compound 6
[6] = MIC of comparative compound / MIC of Compound 11
[7] = MIC of comparative compound / MIC of Compound 8
[8] = MIC of comparative compound / MIC of Compound 2
[9] = MIC of comparative compound / MIC of Compound 7
[10] = MIC of comparative compound / MIC of Compound 1

SMILES | MIC [1] [µg/mL] | MIC [2] [µg/mL] | MIC [3] [µg/mL] | MIC [4] [µg/mL] | other results
COc1c(N2CC[C@H](N)C2)ccc2c(=O)c(C(=O)O)cn(C(C)CF)c12 (stereo partly shown) [C3, reference compound] | – | – | – | – | MIC difference (folds) Sa29213 [1, 5]: 127.0 folds; MIC difference (folds) PaK2376 [2, 5]: 4.0 folds; MIC difference (folds) Pa27853 [3, 5]: 16.0 folds; MIC difference (folds) Sp49619 [4, 5]: 508.0 folds
CC1CC(N)CN(c2ccc3c(=O)c(C(=O)O)cn(CC(F)F)c3c2Cl)C1 (stereo not shown) [F2, reference compound] | – | – | – | – | MIC difference (folds) Sa29213 [1, 6]: 16.1 folds; MIC difference (folds) PaK2376 [2, 6]: 4.0 folds; MIC difference (folds) Pa27853 [3, 6]: 4.0 folds; MIC difference (folds) Sp49619 [4, 6]: 16.0 folds
NC1CCN(c2ccc3c(=O)c(C(=O)O)cn([C@@H]4C[C@@H]4F)c3c2Cl)CC1 [Compound 15] | 0.063 (≈ 0.166 µM) | 8 (≈ 21.1 µM) | 0.25 (≈ 0.658 µM) | 0.063 (≈ 0.166 µM) | –
CC1CC(N)CN(c2ccc3c(=O)c(C(=O)O)cn(C4CC4)c3c2Cl)C1 (stereo not shown) [F1, reference compound] | – | – | – | – | MIC difference (folds) Sa29213 [1, 6]: 1.0 folds; MIC difference (folds) PaK2376 [2, 6]: 1.0 folds; MIC difference (folds) Pa27853 [3, 6]: 2.0 folds; MIC difference (folds) Sp49619 [4, 6]: 2.0 folds
COc1c(N2CC[C@@H](C(F)(F)F)[C@H](N)C2)ccc2c(=O)c(C(=O)O)cn([C@@H]3C[C@@H]3F)c12 [Compound 4] | 0.031 (≈ 0.0699 µM) | 4 (≈ 9.02 µM) | 4 (≈ 9.02 µM) | 0.031 (≈ 0.0699 µM) | –
COc1c(N2CC[C@H](N)C2)ccc2c(=O)c(C(=O)O)cn(C3CC3)c12 [C1, reference compound] | – | – | – | – | MIC difference (folds) Sa29213 [1, 5]: 4.0 folds; MIC difference (folds) Sp49619 [4, 5]: 8.0 folds
CCC[C@@H]1CCN(c2ccc3c(=O)c(C(=O)O)cn([C@@H]4C[C@@H]4F)c3c2OC)C[C@H]1N [Compound 3] | 0.031 (≈ 0.0743 µM) | 4 (≈ 9.58 µM) | 2 (≈ 4.79 µM) | 0.031 (≈ 0.0743 µM) | –
CC[C@@H]1CCN(c2ccc3c(=O)c(C(=O)O)cn([C@@H]4C[C@@H]4F)c3c2C)C[C@H]1N [Compound 10] | 0.031 (≈ 0.08 µM) | 0.5 (≈ 1.29 µM) | 0.125 (≈ 0.323 µM) | 0.031 (≈ 0.08 µM) | –
CCC1CCN(c2ccc3c(=O)c(C(=O)O)cn(CC(F)F)c3c2Cl)CC1N (stereo not shown) [E1, reference compound] | – | – | – | – | MIC difference (folds) Sa29213 [1, 7]: 1.0 folds; MIC difference (folds) PaK2376 [2, 7]: 8.0 folds; MIC difference (folds) Pa27853 [3, 7]: 8.0 folds; MIC difference (folds) Sp49619 [4, 7]: 15.6 folds
COc1c(N2CCC(N)C2)ccc2c(=O)c(C(=O)O)cn(C3CC3F)c12 (stereo not shown) [C2, reference compound] | – | – | – | – | MIC difference (folds) Sa29213 [1, 5]: 8.0 folds; MIC difference (folds) PaK2376 [2, 5]: 1.0 folds; MIC difference (folds) Pa27853 [3, 5]: 1.0 folds; MIC difference (folds) Sp49619 [4, 5]: 15.9 folds
Cc1c(N2C[C@@H](C)C[C@H](N)C2)ccc2c(=O)c(C(=O)O)cn([C@@H]3C[C@@H]3F)c12 [Compound 12] | 0.063 (≈ 0.169 µM) | 4 (≈ 10.7 µM) | 1 (≈ 2.68 µM) | 0.125 (≈ 0.335 µM) | –
COc1c(N2CC[C@H](N)[C@@H](F)C2)ccc2c(=O)c(C(=O)O)cn([C@@H]3C[C@@H]3F)c12 [Compound 14] | 0.063 (≈ 0.16 µM) | 2 (≈ 5.08 µM) | 2 (≈ 5.08 µM) | 0.125 (≈ 0.318 µM) | –
COc1c(N2CCC(C)C(N)C2)ccc2c(=O)c(C(=O)O)cn(C3CC3F)c12 (stereo not shown) [Compound 1, 7-(3-Amino-4-methyl-piperidin-1-yl)-1-(2-fluoro-cyclopropyl)-8-methoxy-4-oxo-1,4-dihydro-quinoline-3-carboxylic acid] | 0.031 (≈ 0.0796 µM) | 1 (≈ 2.57 µM) | 0.25 (≈ 0.642 µM) | 0.031 (≈ 0.0796 µM) | –
CC[C@@H]1CCN(c2ccc3c(=O)c(C(=O)O)cn([C@@H]4C[C@@H]4F)c3c2Cl)C[C@H]1N [Compound 8] | 0.031 (≈ 0.076 µM) | 0.5 (≈ 1.23 µM) | 0.125 (≈ 0.306 µM) | 0.008 (≈ 0.0196 µM) | –
C[C@H]1C[C@H](N)CN(c2ccc3c(=O)c(C(=O)O)cn([C@@H]4C[C@@H]4F)c3c2Cl)C1 [Compound 11] | 0.031 (≈ 0.0787 µM) | 4 (≈ 10.2 µM) | 2 (≈ 5.08 µM) | 0.25 (≈ 0.635 µM) | –
CCC1CCN(c2ccc3c(=O)c(C(=O)O)cn(CC(F)(F)F)c3c2OC)CC1N (stereo not shown) [B2, reference compound] | – | – | – | – | MIC difference (folds) Sa29213 [1, 8]: 1.0 folds; MIC difference (folds) PaK2376 [2, 8]: 4.0 folds; MIC difference (folds) Pa27853 [3, 8]: 16.0 folds; MIC difference (folds) Sp49619 [4, 8]: 4.0 folds
CC1CCN(c2ccc3c(=O)c(C(=O)O)cn(C4CC4)c3c2Cl)CC1N (stereo not shown) [D1, reference compound] | – | – | – | – | MIC difference (folds) Sa29213 [1, 9]: 1.0 folds; MIC difference (folds) PaK2376 [2, 9]: 4.0 folds; MIC difference (folds) Pa27853 [3, 9]: 2.0 folds; MIC difference (folds) Sp49619 [4, 9]: 1.0 folds
COc1c(N2CC[C@@H](F)[C@H](N)C2)ccc2c(=O)c(C(=O)O)cn([C@@H]3C[C@@H]3F)c12 [Compound 5] | 0.063 (≈ 0.16 µM) | 16 (≈ 40.7 µM) | 4 (≈ 10.2 µM) | 0.063 (≈ 0.16 µM) | –
COc1c(N2CC(C)C(N)C2)ccc2c(=O)c(C(=O)O)cn(C3CC3)c12 (stereo not shown) [A1, reference compound] | – | – | – | – | MIC difference (folds) Sa29213 [1, 10]: 16.1 folds; MIC difference (folds) Sp49619 [4, 10]: 64.5 folds
CCC1CCN(c2ccc3c(=O)c(C(=O)O)cn(C4CC4)c3c2OC)CC1N (stereo not shown) [B1, reference compound] | – | – | – | – | MIC difference (folds) Sa29213 [1, 8]: 8.1 folds; MIC difference (folds) PaK2376 [2, 8]: 2.0 folds; MIC difference (folds) Pa27853 [3, 8]: 2.0 folds; MIC difference (folds) Sp49619 [4, 8]: 1.0 folds
COc1c(N2CCC(C)C(N)C2)ccc2c(=O)c(C(=O)O)cn(C3CC3)c12 (stereo not shown) [A2, reference compound] | – | – | – | – | MIC difference (folds) Sa29213 [1, 10]: 4.0 folds; MIC difference (folds) PaK2376 [2, 10]: 32.0 folds; MIC difference (folds) Pa27853 [3, 10]: 32.0 folds; MIC difference (folds) Sp49619 [4, 10]: 4.0 folds
COc1c(N2C[C@@H](N)C[C@H](F)C2)ccc2c(=O)c(C(=O)O)cn([C@@H]3C[C@@H]3F)c12 [Compound 13] | 0.063 (≈ 0.16 µM) | 16 (≈ 40.7 µM) | 2 (≈ 5.08 µM) | 0.031 (≈ 0.0788 µM) | –
Cc1c(N2CCC[C@H](N)C2)ccc2c(=O)c(C(=O)O)cn([C@@H]3C[C@@H]3F)c12 [Compound 9] | 0.031 (≈ 0.0863 µM) | 2 (≈ 5.56 µM) | 0.5 (≈ 1.39 µM) | 0.031 (≈ 0.0863 µM) | –
CCC1CCN(c2ccc3c(=O)c(C(=O)O)cn(CC(F)F)c3c2OC)CC1N (stereo not shown) [B3, reference compound] | – | – | – | – | MIC difference (folds) Sa29213 [1, 8]: 1.0 folds; MIC difference (folds) PaK2376 [2, 8]: 8.0 folds; MIC difference (folds) Pa27853 [3, 8]: 4.0 folds; MIC difference (folds) Sp49619 [4, 8]: 8.1 folds
C[C@@H]1CCN(c2ccc3c(=O)c(C(=O)O)cn([C@@H]4C[C@@H]4F)c3c2Cl)C[C@H]1N [Compound 7] | 0.031 (≈ 0.0787 µM) | 2 (≈ 5.08 µM) | 2 (≈ 5.08 µM) | 0.031 (≈ 0.0787 µM) | –
CC[C@@H]1CCN(c2ccc3c(=O)c(C(=O)O)cn([C@@H]4C[C@@H]4F)c3c2OC)C[C@H]1N [Compound 2] | 0.031 (≈ 0.0768 µM) | 2 (≈ 4.96 µM) | 0.5 (≈ 1.24 µM) | 0.031 (≈ 0.0768 µM) | –
